Data reported in ChEMBL document CHEMBL2424604, “Design, synthesis and QSAR studies of dispiroindole derivatives as new antiproliferative agents” (Eur J Med Chem, 2013).

What was measured:
Format in all cases: functional, cell-based
PC-3 = experiment: Cytotoxicity against human PC3 cells after 48 hrs by SRB assay; details: PC-3, 48 h
HeLa = experiment: Cytotoxicity against human HeLa cells after 48 hrs by SRB assay
HepG2 = experiment: Cytotoxicity against human HepG2 cells after 48 hrs by SRB assay; details: HepG2, 48 h

Row | Compound | IC50 (PC-3) | IC50 (HeLa) | IC50 (HepG2)
1 | COc1cccc2c1C(=O)c1c(O)c3c(c(O)c1C2=O)C[C@@](O)(C(=O)CO)C[C@@H]3O[C@H]1C[C@H](N)[C@H](O)[C@H](C)O1 [DOXORUBICIN] | 8.83 µM | 7.71 µM | –
2 | Cc1ccc(/C=C2\CCC[C@]3(C2=O)[C@H](c2ccc(C)o2)CN(C)[C@]32C(=O)N(CN3CCOCC3)c3ccccc32)o1 | 21.2 µM | 18 µM | 28.4 µM
3 | COc1ccc(/C=C2\CCC[C@]3(C2=O)[C@H](c2ccc(OC)c(OC)c2)CN(C)[C@]32C(=O)N(CN3CCOCC3)c3ccccc32)cc1OC | 32 µM | 10.9 µM | 6.99 µM
4 | CN1C[C@@H](c2ccccc2)[C@@]2(CCC/C(=C\c3ccccc3)C2=O)[C@@]12C(=O)N(CN1CCOCC1)c1ccccc12 | 26.7 µM | 14.8 µM | 13.3 µM
5 | Cc1ccc(/C=C2\CCC[C@]3(C2=O)[C@H](c2ccc(C)cc2)CN(C)[C@]32C(=O)N(CN3CCOCC3)c3ccccc32)cc1 | 32.9 µM | 13.3 µM | 21.7 µM
6 | CN1C[C@@H](c2ccc(F)cc2)[C@@]2(CCC/C(=C\c3ccc(F)cc3)C2=O)[C@@]12C(=O)N(CN1CCOCC1)c1ccccc12 | 19.5 µM | 6.96 µM | 8.09 µM
7 | COc1ccc(/C=C2\CCC[C@]3(C2=O)[C@H](c2ccc(OC)cc2)CN(C)[C@]32C(=O)N(CN3CCOCC3)c3ccccc32)cc1 | 58.8 µM | 18.5 µM | 18.7 µM
8 | CN1C[C@@H](c2cccs2)[C@@]2(CCC/C(=C\c3cccs3)C2=O)[C@@]12C(=O)N(CN1CCOCC1)c1ccccc12 | 30.1 µM | 27.4 µM | 30 µM
9 | CN1C[C@@H](c2ccc(Cl)cc2Cl)[C@@]2(CCC/C(=C\c3ccc(Cl)cc3Cl)C2=O)[C@@]12C(=O)N(CN1CCOCC1)c1ccccc12 | 21.9 µM | 22.3 µM | 24.9 µM
